Experimental data taken from PubChem BioAssay AID2060900 (Molecular Pharmacology Branch, DTP, NCI, 2025).

Test system: 521955-158-R2-J5-PDC complex spheroids, viability
Assay: Anticancer human tumor 521955-158-R2-J5-PDC patient-derived pancreatic carcinoma cell line growth inhibition [RAS]
Settings: for viability, T/C: stronger effect = lower value
Outline: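 Agents were tested in combination matrices in half-log decrements from a top concentration at or near clinical Cmax (10 microM if undetermined). Targets were multi-cell spheroids of tumour lines plus HUVEC and MSC stromal cells.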

[1] = curve of first compound, second compound 0.0316 µM
[2] = curve of first compound, second compound 0.1 µM
[3] = curve of first compound, second compound 0.316 µM
[4] = curve of first compound, second compound 1 µM
[5] = curve of first compound, second compound 3.16 µM
[6] = curve of first compound, second compound 10 µM
[7] = second compound 0.0316 µM, first compound 0.00316 µM
[8] = second compound 0.0316 µM, first compound 0.01 µM
[9] = second compound 0.0316 µM, first compound 0.0316 µM
[10] = second compound 0.0316 µM, first compound 0.1 µM
[11] = second compound 0.0316 µM, first compound 0.316 µM
[12] = second compound 0.0316 µM, first compound 1 µM
[13] = second compound 0.1 µM, first compound 0.00316 µM
[14] = second compound 0.1 µM, first compound 0.01 µM
[15] = second compound 0.1 µM, first compound 0.0316 µM
[16] = second compound 0.1 µM, first compound 0.1 µM
[17] = second compound 0.1 µM, first compound 0.316 µM
[18] = second compound 0.1 µM, first compound 1 µM
[19] = second compound 0.316 µM, first compound 0.00316 µM
[20] = second compound 0.316 µM, first compound 0.01 µM
[21] = second compound 0.316 µM, first compound 0.0316 µM
[22] = second compound 0.316 µM, first compound 0.1 µM
[23] = second compound 0.316 µM, first compound 0.316 µM
[24] = second compound 0.316 µM, first compound 1 µM
[25] = second compound 1 µM, first compound 0.00316 µM
[26] = second compound 1 µM, first compound 0.01 µM
[27] = second compound 1 µM, first compound 0.0316 µM
[28] = second compound 1 µM, first compound 0.1 µM
[29] = second compound 1 µM, first compound 0.316 µM
[30] = second compound 1 µM, first compound 1 µM
[31] = second compound 3.16 µM, first compound 0.00316 µM
[32] = second compound 3.16 µM, first compound 0.01 µM
[33] = second compound 3.16 µM, first compound 0.0316 µM
[34] = second compound 3.16 µM, first compound 0.1 µM
[35] = second compound 3.16 µM, first compound 0.316 µM
[36] = second compound 3.16 µM, first compound 1 µM
[37] = second compound 10 µM, first compound 0.00316 µM
[38] = second compound 10 µM, first compound 0.01 µM
[39] = second compound 10 µM, first compound 0.0316 µM
[40] = second compound 10 µM, first compound 0.1 µM
[41] = second compound 10 µM, first compound 0.316 µM
[42] = second compound 10 µM, first compound 1 µM
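Also: compound exposure lasted seven days before the viability read.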
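For viability, T/C in this document: spheroids also contain HUVEC endothelial cells and mesenchymal stem cells as stroma.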

In the case of `CCC(CC)c1cc(NC2CCC(N)C2)n2nccc2n1` (stereo not given), the viability, T/C (compound 0.0316 µM) is reported as 110% [middle of 4 runs], the viability, T/C (compound 0.1 µM) is reported as 91.2% [middle of 4 runs] and the viability, T/C (compound 0.316 µM) is reported as 122% [middle of 4 runs]. The viability, T/C (compound 1 µM) was 111% [middle of 4 runs], the viability, T/C (compound 3.16 µM) was 9.87% [middle of 4 runs] and the viability, T/C (compound 10 µM) was 10.2% [middle of 4 runs]. For the same compound, the IC50 (curve of compound) was 1.97 µM [middle of 4 runs].
In the case of `C=CC(=O)N1CCN(c2nc(OCC3CCCN3C)nc3c(F)c(-c4nc(N)cc(C)c4C(F)(F)F)c(Cl)cc23)C(C)C1` (stereo not given) + C#Cc1c(F)ccc2cc(O)cc(-c3ncc4c(N5CC6CCC(C5)N6)nc(OCC56CCCN5CC(F)C6)nc4c3F)c12, the IC50 [1] is reported as > 1000 nM, the IC50 [2] is reported as > 1000 nM and the IC50 [3] is reported as > 1000 nM. The IC50 [4] was > 1000 nM, the IC50 [5] was < 3.16 nM and the IC50 [6] was < 3.16 nM. For the same compound, the viability, T/C [7] was 61.3%, the viability, T/C [8] was 63.1% and the viability, T/C [9] was 74.1%. The viability, T/C [10] was 57.2%, the viability, T/C [11] was 55.6% and the viability, T/C [12] was 71.8%. It also gave a viability, T/C [13] of 55.9%, a viability, T/C [14] of 64.8% and a viability, T/C [15] of 58.7%. It also gave a viability, T/C [16] of 48.8%, a viability, T/C [17] of 56.6% and a viability, T/C [18] of 61.8%. It also gave a viability, T/C [19] of 53.2%, a viability, T/C [20] of 56.8% and a viability, T/C [21] of 58.5%. It also gave a viability, T/C [22] of 54.8%, a viability, T/C [23] of 52.8% and a viability, T/C [24] of 52.1%. The viability, T/C [25] was 48%, the viability, T/C [26] was 72.6% and the viability, T/C [27] was 47.1%. It also gave a viability, T/C [28] of 60.7%, a viability, T/C [29] of 53.2% and a viability, T/C [30] of 59.2%. It also gave a viability, T/C [31] of 42.4%, a viability, T/C [32] of 52.1% and a viability, T/C [33] of 54.8%. The viability, T/C [34] was 56.9%, the viability, T/C [35] was 50.6% and the viability, T/C [36] was 47.2%. The viability, T/C [37] was 40%, the viability, T/C [38] was 56.9% and the viability, T/C [39] was 38.3%. The viability, T/C [40] was 43.6%, the viability, T/C [41] was 39.3% and the viability, T/C [42] was 29.8%.
Work on `Cc1nc(N2CCC3(CC2)COC(C)C3N)c(CO)nc1Sc1ccnc(N)c1Cl` (stereo not given) + C#Cc1c(F)ccc2cc(O)cc(-c3ncc4c(N5CC6CCC(C5)N6)nc(OCC56CCCN5CC(F)C6)nc4c3F)c12 yielded an IC50 [1] of 598 nM, an IC50 [2] of 177 nM and an IC50 [3] of 115 nM. For the same compound, the IC50 [4] was < 31.6 nM, the IC50 [5] was < 31.6 nM and the IC50 [6] was < 31.6 nM. For the same compound, the viability, T/C [9] was 50.1%, the viability, T/C [10] was 63.7% and the viability, T/C [11] was 60.6%. It also gave a viability, T/C [12] of 43.5%, a viability, T/C (second compound 0.0316 µM, first compound 3.16 µM) of 42.3% and a viability, T/C (second compound 0.0316 µM, first compound 10 µM) of 37.4%. For the same compound, the viability, T/C [15] was 61.1%, the viability, T/C [16] was 58.3% and the viability, T/C [17] was 41.9%. For the same compound, the viability, T/C [18] was 37.6%, the viability, T/C (second compound 0.1 µM, first compound 3.16 µM) was 39.7% and the viability, T/C (second compound 0.1 µM, first compound 10 µM) was 28.2%. For the same compound, the viability, T/C [21] was 63.1%, the viability, T/C [22] was 46.2% and the viability, T/C [23] was 44.1%. For the same compound, the viability, T/C [24] was 37.7%, the viability, T/C (second compound 0.316 µM, first compound 3.16 µM) was 27.2% and the viability, T/C (second compound 0.316 µM, first compound 10 µM) was 24%. For the same compound, the viability, T/C [27] was 45.3%, the viability, T/C [28] was 42.9% and the viability, T/C [29] was 39.3%. It also gave a viability, T/C [30] of 30.7%, a viability, T/C (second compound 1 µM, first compound 3.16 µM) of 33.2% and a viability, T/C (second compound 1 µM, first compound 10 µM) of 22.9%. It also gave a viability, T/C [33] of 37.1%, a viability, T/C [34] of 39.7% and a viability, T/C [35] of 34.4%. For the same compound, the viability, T/C [36] was 28.3%, the viability, T/C (second compound 3.16 µM, first compound 3.16 µM) was 19% and the viability, T/C (second compound 3.16 µM, first compound 10 µM) was 20.1%. For the same compound, the viability, T/C [39] was 48.7%, the viability, T/C [40] was 28.2% and the viability, T/C [41] was 21.3%. It also gave a viability, T/C [42] of 18.5%, a viability, T/C (second compound 10 µM, first compound 3.16 µM) of 13.7% and a viability, T/C (second compound 10 µM, first compound 10 µM) of 5%.
In the case of `C=CC(=O)N1CCN(c2nc(OCC3CCCN3C)nc3c(F)c(-c4nc(N)cc(C)c4C(F)(F)F)c(Cl)cc23)C(C)C1` (stereo not given), the IC50 (compound alone, run of 06/10/2024) is reported as > 1000 nM and the IC50 (curve of compound) is reported as > 1000 nM.
Work on `C=CC(=O)Nc1cc(Nc2nccc(-c3cn(C)c4ccccc34)n2)c(OC)cc1N(C)CCN(C)C` + C#Cc1c(F)ccc2cc(O)cc(-c3ncc4c(N5CC6CCC(C5)N6)nc(OCC56CCCN5CC(F)C6)nc4c3F)c12 yielded an IC50 [1] of 39.2 nM, an IC50 [2] of 217 nM and an IC50 [3] of 47.1 nM. For the same compound, the IC50 [4] was < 3.16 nM, the IC50 [5] was < 3.16 nM and the IC50 [6] was < 3.16 nM. It also gave a viability, T/C [7] of 65.3%, a viability, T/C [8] of 56% and a viability, T/C [9] of 52.8%. For the same compound, the viability, T/C [10] was 43.5%, the viability, T/C [11] was 38.3% and the viability, T/C [12] was 29.6%. For the same compound, the viability, T/C [13] was 46%, the viability, T/C [14] was 59.9% and the viability, T/C [15] was 49.7%. For the same compound, the viability, T/C [16] was 59.8%, the viability, T/C [17] was 46.7% and the viability, T/C [18] was 22.9%. The viability, T/C [19] was 51%, the viability, T/C [20] was 58.8% and the viability, T/C [21] was 47.1%. It also gave a viability, T/C [22] of 48.6%, a viability, T/C [23] of 34.5% and a viability, T/C [24] of 22.6%. It also gave a viability, T/C [25] of 46.8%, a viability, T/C [26] of 48.3% and a viability, T/C [27] of 51.1%. For the same compound, the viability, T/C [28] was 43.4%, the viability, T/C [29] was 34.4% and the viability, T/C [30] was 17.8%. The viability, T/C [31] was 43%, the viability, T/C [32] was 53.4% and the viability, T/C [33] was 42.5%. For the same compound, the viability, T/C [34] was 49.9%, the viability, T/C [35] was 27.8% and the viability, T/C [36] was 15%. The viability, T/C [37] was 32.5%, the viability, T/C [38] was 43.9% and the viability, T/C [39] was 32.2%. For the same compound, the viability, T/C [40] was 34.2%, the viability, T/C [41] was 26.1% and the viability, T/C [42] was 3.73%.
